IC50 data for 14 compounds are collected here from US20220168427A1 (Ranok Therapeutics (Hangzhou) Co. Ltd., priority 2019, published 2022).

One data set deals with HSP90α (Homo sapiens, UniProt P07900). As to the kind of experiment: HSP90α Binding Fluorescent Polarization (FP) Assay. To be noted: competition with FITC-geldanamycin; read-out: HSP90 Binding Potency. In outline: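 Competitive FP assay in which compound displaces FITC-geldanamycin from recombinant HSP90α (28 μg/ml before addition) in BSA-containing buffer. Compounds in 3-fold series from 40 μM to 2.0 nM (dilution-plate concentrations), tested in duplicate. Readings after 30, 60 and 120 min at 25 °C; background-subtracted mP fitted to four-parameter log[inhibitor]-response curve.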

The target of a further data set is T1, BRD4 (BD1+BD2) (Homo sapiens, UniProt O60885).
T1 construct: 1.8 μg/ml recombinant BRD4 (BD1+BD2 domains) protein
To be noted: read-out: BRD4 Binding Potency.

The test system of the next data set is MV4-11 cells. As to the kind of experiment: MV4-11 Cell Cytotoxicity Assay. It counts as cell-based, human. To be noted: human, MV4-11 cells, CCK-8. An excerpt: % Inhibition=100−(D−B)/(S−B)*100%.
S: The absorbance of the maximum (cells with DMSO)
B: The absorbance of the minimum (medium with DMSO)

Where a name gives a salt, the structure may show the parent alone. A value given as a limit tells only on which side of the number the result lay.

Regarding `Cc1nn(-c2ccc(C(N)=O)c(NCCOCCN3CCN(C(=O)C[C@@H]4N=C(c5ccc(Cl)cc5)c5c(sc(C)c5C)-n5c(C)nnc54)CC3)c2)c2c1C(=O)CC(C)(C)C2` [Compound 24, 2-((2-(2-(4-(2-((6S)-4-(4-chlorophenyl)-2,3,9-trimethyl-6H-thieno[3,2-f][1,2,4]triazolo[4,3-a][1,4]diazepin-6-yl)acetyl)piperazin-1-yl)ethoxy)ethyl)amino)-4-(3,6,6-trimethyl-4-oxo-4,5,6,7-tetrahydro-1H-indazol-1-yl)benzamide], the IC50 on HSP90α and at BRD4 (BD1+BD2) was greater than 1 µM throughout. In addition, the IC50 at 72 h in the data set with MV4-11 cells is 0.1 to 1 µM.

Take `CCNC(=O)c1nnc(-c2cc(CC)c(O)cc2O)n1-c1ccc(CC2CCN(CC3CCN(C(=O)C[C@@H]4N=C(c5ccc(Cl)cc5)c5c(sc(C)c5C)-n5c(C)nnc54)CC3)CC2)cc1` [Compound 87, (S)-4-(4-((1-((1-(2-(4-(4-chlorophenyl)-2,3,9-trimethyl-6H-thieno[3,2-f][1,2,4]triazolo[4,3-a][1,4]diazepin-6-yl)acetyl)piperidin-4-yl)methyl)piperidin-4-yl)methyl)phenyl)-N-ethyl-5-(5-ethyl-2,4-dihydroxyphenyl)-1H-1,2,414-triazole-3-carboxamide, trifluoroacetic acid]: the IC50 on HSP90α and at BRD4 (BD1+BD2) was 0.1 to 1 µM in each case. Further, the IC50 at 72 h in the data set on MV4-11 cells was less than 0.1 µM.

For the compound `Cc1sc2c(c1C)C(c1ccc(Cl)cc1)=N[C@@H](CC(=O)N1CCC(CN3CCN(Cc4ccc(-n5c(C(=O)NCC(F)(F)F)nnc5-c5cc(C(C)C)c(O)cc5O)cc4)CC3)CC1)c1nnc(C)n1-2` [Compound 13, 4-(4-((4-((1-(2-((6S)-4-(4-chlorophenyl)-2,3,9-trimethyl-6H-thieno[3,2-f][1,2,4]triazolo[4,3-a][1,4]diazepin-6-yl)acetyl)piperidin-4-yl)methyl)piperazin-1-yl)methyl)phenyl)-5-(2,4-dihydroxy-5-isopropylphenyl)-N-(2,2,2-trifluoroethyl)-4H-1,2,4-triazole-3-carboxamide], the IC50 at HSP90α and on BRD4 (BD1+BD2) was 0.1 to 1 µM each time. This compound also yielded an IC50 at 72 h with MV4-11 cells of less than 0.1 µM.

On to `Cc1sc2c(c1C)C(c1ccc(Cl)cc1)=N[C@@H](CC(=O)NCC(=O)NCc1ccc(-n3c(O)nnc3-c3cc(C(C)C)c(O)cc3O)cc1)c1nnc(C)n1-2` [Compound 57, 2-((6S)-4-(4-chlorophenyl)-2,3,9-trimethyl-6H-thieno[3,2-f][1,2,4]triazolo[4,3-a][1,4]diazepin-6-yl)-N-(2-((4-(3-(2,4-dihydroxy-5-isopropylphenyl)-5-hydroxy-4H-1,2,4-triazol-4-yl)benzyl)amino)-2-oxoethyl)acetamide], for which the IC50 at HSP90α and on BRD4 (BD1+BD2) was 0.1 to 1 µM throughout. The compound further had an IC50 at 72 h in the data set on MV4-11 cells of 0.1 to 1 µM.

For `Cc1sc2c(c1C)C(c1ccc(Cl)cc1)=N[C@@H](CC(=O)N1CCC(CCN[C@@H](C)C(=O)N[C@H](C(=O)N3CCC[C@H]3C(=O)Nc3snnc3-c3ccccc3)C3CCCCC3)CC1)c1nnc(C)n1-2` [Compound 130, (S)-1-((S)-2-((S)-2-((2-(1-(2-((S)-4-(4-chlorophenyl)-2,3,9-trimethyl-6H-thieno[3,2-f][1,2,4]triazolo[4,3-a][1,4]diazepin-6-yl)acetyl)piperidin-4-yl)ethyl)amino)propanamido)-2-cyclohexylacetyl)-N-(4-phenyl-1,2,3-thiadiazol-5-yl)pyrrolidine-2-carboxamide], the results for the IC50 on HSP90α and on BRD4 (BD1+BD2) were greater than 1 µM and 0.1 to 1 µM, respectively. Moreover, the IC50 at 72 h in the data set on MV4-11 cells is 0.1 to 1 µM.

With `CCc1cc(-c2nnc(O)n2-c2ccc(CC3CCN(CC4CCN(C(=O)C[C@@H]5N=C(c6ccc(Cl)cc6)c6c(sc(C)c6C)-n6c(C)nnc65)CC4)CC3)cc2)c(O)cc1O` [Compound 88, (S)-2-(4-(4-chlorophenyl)-2,3,9-trimethyl-6H-thieno[3,2-f][1,2,4]triazolo[4,3-a][1,4]diazepin-6-yl)-1-(4-((4-(4-(3-(5-ethyl-2,4-dihydroxyphenyl)-5-hydroxy-4H-1,2,4-triazol-4-yl)benzyl)piperidin-1-yl)methyl)piperidin-1-yl)ethan-1-one, formic acid], the IC50 on HSP90α and at BRD4 (BD1+BD2) was 0.1 to 1 µM in each case. Also, the IC50 at 72 h in the data set with MV4-11 cells is less than 0.1 µM.

For the compound `Cc1cc(C(=O)N2Cc3ccc(CN4CCN(C(=O)C[C@@H]5N=C(c6ccc(Cl)cc6)c6c(sc(C)c6C)-n6c(C)nnc65)CC4)cc3C2)c(O)cc1O` [Compound 144, (S)-2-(4-(4-chlorophenyl)-2,3,9-trimethyl-6H-thieno[3,2-f][1,2,4]triazolo[4,3-a][1,4]diazepin-6-yl)-1-(4-((2-(2,4-dihydroxy-5-methylbenzoyl)isoindolin-5-yl)methyl)piperazin-1-yl)ethan-1-one], the IC50 at HSP90α and on BRD4 (BD1+BD2) was 0.1 to 1 µM each time. The IC50 at 72 h with MV4-11 cells lay within 0.1 to 1 µM.

As for `Cc1sc2c(c1C)C(c1ccc(Cl)cc1)=N[C@@H](CC(=O)NCCOCCN[C@@H](C)C(=O)NC(C(=O)N1CCC[C@H]1C(=O)Nc1snnc1-c1ccccc1)C1CCCCC1)c1nnc(C)n1-2` (stereo in doubt) [Compound 127, (S)-1-((2S,5S)-14-((S)-4-(4-chlorophenyl)-2,3,9-trimethyl-6H-thieno[3,2-f][1,2,4]triazolo[4,3-a][1,4]diazepin-6-yl)-2-cyclohexyl-5-methyl-4,13-dioxo-9-oxa-3,6,12-triazatetradecanoyl)-N-(4-phenyl-1,2,3-thiadiazol-5-yl)pyrrolidine-2-carboxamide], the IC50 at HSP90α was greater than 1 µM; at BRD4 (BD1+BD2) it was 0.1 to 1 µM. The same compound displayed an IC50 at 72 h with MV4-11 cells of 0.1 to 1 µM.

`Cc1nn(-c2ccc(C(N)=O)c(NCCOCCNC(=O)C[C@@H]3N=C(c4ccc(Cl)cc4)c4c(sc(C)c4C)-n4c(C)nnc43)c2)c2c1C(=O)CC(C)(C)C2` [Compound 20, 2-((2-(2-(2-((6S)-4-(4-chlorophenyl)-2,3,9-trimethyl-6H-thieno[3,2-f][1,2,4]triazolo[4,3-a][1,4]diazepin-6-yl)acetamido)ethoxy)ethyl)amino)-4-(3,6,6-trimethyl-4-oxo-4,5,6,7-tetrahydro-1H-indazol-1-yl)benzamide]: the IC50 at HSP90α and on BRD4 (BD1+BD2) was greater than 1 µM each time. In the data set on MV4-11 cells, the IC50 at 72 h lay within 0.1 to 1 µM.

For the compound `Cc1sc2c(c1C)C(c1ccc(Cl)cc1)=N[C@@H](CC(=O)NCCOCCN1CCN(Cc3ccc(-n4c(O)nnc4-c4cc(C(C)C)c(O)cc4O)cc3)CC1)c1nnc(C)n1-2` [Compound 49, 2-((6S)-4-(4-chlorophenyl)-2,3,9-trimethyl-6H-thieno[3,2-f][1,2,4]triazolo[4,3-a][1,4]diazepin-6-yl)-N-(2-(2-(4-(4-(3-(2,4-dihydroxy-5-isopropylphenyl)-5-hydroxy-4H-1,2,4-triazol-4-yl)benzyl)piperazin-1-yl)ethoxy)ethyl)acetamide, trifluoroacetic acid, trifluoroacetic acid, trifluoroacetic acid, trifluoroacetic …], the IC50 was less than 0.1 µM on HSP90α and 0.1 to 1 µM on BRD4 (BD1+BD2). In the data set with MV4-11 cells, this compound yielded an IC50 at 72 h of less than 0.1 µM.

As to `Cc1nn(-c2ccc(C(N)=O)c(NCCOCCC3CCN(C(=O)C[C@@H]4N=C(c5ccc(Cl)cc5)c5c(sc(C)c5C)-n5c(C)nnc54)CC3)c2)c2c1C(=O)CC(C)(C)C2` [Compound 23, 2-((2-(2-(1-(2-((6S)-4-(4-chlorophenyl)-2,3,9-trimethyl-6H-thieno[3,2-f][1,2,4]triazolo[4,3-a][1,4]diazepin-6-yl)acetyl)piperidin-4-yl)ethoxy)ethyl)amino)-4-(3,6,6-trimethyl-4-oxo-4,5,6,7-tetrahydro-1H-indazol-1-yl)benzamide, trifluoroacetic acid], the IC50 at HSP90α and at BRD4 (BD1+BD2) was greater than 1 µM throughout. Also, the IC50 at 72 h in the data set on MV4-11 cells fell in the range of 0.1 to 1 µM.

On to `Cc1sc2c(c1C)C(c1ccc(Cl)cc1)=N[C@H](CC(=O)N1CCC(CN3CCN(Cc4ccc(-n5c(O)nnc5-c5cc(C(C)C)c(O)cc5O)cc4)CC3)CC1)c1nnc(C)n1-2` [Compound 125, (R)-2-(4-(4-chlorophenyl)-2,3,9-trimethyl-6H-thieno[3,2-f][1,2,4]triazolo[4,3-a][1,4]diazepin-6-yl)-1-(4-((4-(4-(3-(2,4-dihydroxy-5-isopropylphenyl)-5-hydroxy-4H-1,2,4-triazol-4-yl)benzyl)piperazin-1-yl)methyl)piperidin-1-yl)ethan-1-one hydrochloride], for which the IC50 on HSP90α was less than 0.1 µM; on BRD4 (BD1+BD2), greater than 1 µM. Moreover, the IC50 at 72 h in the data set on MV4-11 cells was less than 0.1 µM.

Turning to `Cc1sc2c(c1C)C(c1ccc(Cl)cc1)=N[C@@H](CC(=O)N1CCC(CN3CCN(Cc4ccc(-n5c(C(=O)NCCN6CCCCC6)nnc5-c5ccc(O)cc5O)cc4)CC3)CC1)c1nnc(C)n1-2` [Compound 110, (S)-4-(4-((4-((1-(2-(4-(4-chlorophenyl)-2,3,9-trimethyl-6H-thieno[3,2-f][1,2,4]triazolo[4,3-a][1,4]diazepin-6-yl)acetyl)piperidin-4-yl)methyl)piperazin-1-yl)methyl)phenyl)-5-(2,4-dihydroxyphenyl)-N-(2-(piperidin-1-yl)ethyl)-4H-1,2,4-triazole-3-carboxamide, trifluoroacetic acid], the IC50 on HSP90α was 0.1 to 1 µM; on BRD4 (BD1+BD2), less than 0.1 µM. In addition, the IC50 at 72 h with MV4-11 cells is 0.1 to 1 µM.

As for `Cc1sc2c(c1C)C(c1ccc(Cl)cc1)=N[C@@H](CCN(C)CCOCCOc1ccc(-n3c(O)nnc3-c3cc(C(C)C)c(O)cc3O)cc1)c1nnc(C)n1-2` [Compound 71, (S)-4-(4-(4-(2-(2-((2-(4-(4-chlorophenyl)-2,3,9-trimethyl-6H-thieno[3,2-f][1,2,4]triazolo[4,3-a][1,4]diazepin-6-yl)ethyl)(methyl)amino)ethoxy)ethoxy)phenyl)-5-hydroxy-4H-1,2,4-triazol-3-yl)-6-isopropylbenzene-1,3-diol, trifluoroacetic acid], the results for the IC50 at HSP90α and on BRD4 (BD1+BD2) were 0.1 to 1 µM and greater than 1 µM, respectively. In the data set on MV4-11 cells, this compound yielded an IC50 at 72 h of 0.1 to 1 µM.
